The test system of this test is A375-luciferase intracranial tumor xenografts. Kind of test: Intracranial A375-luciferase efficacy and survival mouse tumor model. The format is in vivo, Female nu/nu NCr mice. Particulars: BID PO 60 consecutive days, FIG. 15. As for the experimental part: Female nu/nu NCr mice from Envigo (Indianapolis, Ind.) were obtained at 5-6 weeks of age and housed in groups of 5. Following a one week minimum acclimation period, mice received orthotopic (i.c.) intracranial injections of 3.0×10^3 A375-luciferase tumor cells suspended in a volume of 10 μL 0.9% sterile Dulbecco's phosphate buffered saline (DPBS) using the top-down approach (Laursen and Belknap, 1986). Seven days post cell implant (Day 1), animals were randomized and sorted into five groups (n=10/group).
Test compounds were given at a dose volume of 10 mL/kg, and vehicles were matched for each group to control for dosing stress, i.e. all groups received twice daily (BID) dose administration by oral gavage (PO) at the relevant dose volumes and schedule shown in Table 9. Tumor growth was monitored by measuring luciferase activity twice per week. Total flux/mouse can vary by an order of magnitude on day 1 of study start (start of dosing). The total flux was normalized per mouse by assigning the first measurement of flux on day 2 as 100%. Body weight loss as an indicator of tumor progression was determined daily during the dosing interval and then as needed (at least once weekly). Survival was evaluated through day 90 (30 days post-dosing cessation).

SMILES strings stand for the structures.

On to `Cc1c(Nc2c(F)ccc(NS(=O)(=O)CCCF)c2Cl)ccc2ncn(C)c(=O)c12` [Example 82, N-(2-chloro-3-((3,5-dimethyl-4-oxo-3,4-dihydroquinazolin-6-yl)amino)-4-fluorophenyl)-3-fluoropropane-1-sulfonamide], for which the “Tumor growth (total bioluminescence, luciferase activity)” value is given as “significant effect on tumor growth”.

Values taken from patent US11634409B2, “Compounds for the treatment of BRAF-associated diseases and disorders” (Array BioPharma Inc., priority 2019, dated 2023).
